How the values were obtained:
[1] = tested on: adult subjects with late-onset Pompe disease (LOPD); assay: ATB200-03 (PROPEL): Gait, Stair, Gower, Chair (GSGC) test; assay type: in vivo, human; conditions: overall population, 52 weeks (p<0.05)
Excerpt: (§1) The ATB200-03 trial was a phase 3 double-blind, randomized, multicenter, international study of ATB200/AT2221 in adult subjects with late-onset Pompe disease (LOPD) who had received enzyme replacement therapy with alglucosidase alfa (i.e., ERT-experienced) or who had never received ERT (i.e., ERT naïve), compared with alglucosidase alfa/placebo.
(§2) Efficacy assessments (i.e., functional assessments) included evaluation of ambulatory function (6MWT), motor function tests (Gait, Stair, Gower, and Chair maneuver (GSGC) test and Timed Up and Go (TUG) test), muscle strength (manual muscle testing and quantitative muscle testing), and pulmonary function tests (FVC, SVC, MIP, MEP, and SNIP). Patient reported outcomes (Rasch-built Pompe-specific Activity (R Pact) Scale, EuroQol 5 Dimensions 5 Levels Instrument (EQ-5D-5L), Patient-Reported Outcomes Measurement Information System (PROMIS®) instruments for physical function, fatigue, dyspnea, and upper extremity, and Subject's Global Impression of Change) were recorded. The Physician's Global Impression of Change were also performed.
Key secondary efficacy endpoints in a pre-specified hierarchical order of importance were as follows. […]

[2] = tested on: adult subjects with late-onset Pompe disease (LOPD); assay: ATB200-03 (PROPEL) phase 3 trial: sitting forced vital capacity; assay type: in vivo, human
Excerpt: as §1, §2
Key secondary efficacy endpoints in a pre-specified hierarchical order of importance were as follows. These secondary endpoints were analyzed using analysis of covariance (ANCOVA) model with last observation carried forward (ITT LOCF). • change from baseline to Week 52 in sitting FVC (% predicted) • change from baseline to Week 52 in the manual muscle test score for the lower extremities • change from baseline to Week 52 in the total score for the PROMIS—physical function • change from baseline to Week 52 in the total score for the PROMIS—fatigue • change from baseline to Week 52 in GSGC total score
(§3) PROPEL was a 52-week, double-blind randomized global study designed to assess the efficacy, safety and tolerability of AT-GAA compared to the current standard of care, alglucosidase alfa, an enzyme replacement therapy (ERT). The study enrolled 123 adult Pompe patients who still had the ability to walk and to breathe without mechanical ventilation and was conducted at 62 clinical sites in 24 countries on 5 continents. It was the largest controlled clinical study ever conducted in a lysosomal disorder.

[3] = tested on: adult subjects with late-onset Pompe disease (LOPD); assay: ATB200-03 (PROPEL): creatine kinase (CK) biomarker of muscle injury; assay type: in vivo, human; conditions: after 52 weeks, overall population (p<0.001)
Excerpt: as §1
(§4) Pharmacodynamic assessments included measurement of biomarkers of muscle injury (creatine kinase (CK) and disease substrate (urinary hexose tetrasaccharide (Hex4)). Sparse blood samples were collected for determination of total GAA protein levels and AT2221 concentrations in plasma for a population PK analysis in ERT-experienced subjects. Serial blood sampling for characterization of the PK profile of total GAA protein and AT2221 were done in ERT-naïve subjects.
(§5) Pharmacodynamic endpoints were as follows: • change from baseline to Week 52 in serum CK level • change from baseline to Week 52 in urinary Hex4 level

Gaa KO mice [4] = assay: muscle biomarker analysis (LAMP1, LC3, dysferlin) in Gaa KO mice; assay type: in vivo; conditions: FIG. 15B
Procedure: The therapeutic effects of ATB200 and AT2221 were evaluated and compared against those of Alglucosidase alfa in Gaa KO mice. For the study, male Gaa KO (3- to 4-month old) and age-matched wild-type (WT) mice were used. Alglucosidase alfa was administered via bolus tail vein intravenous (IV) injection. In the co-administration regimen, AT2221 was administered via oral gavage (PO) 30 minutes prior to the IV injection of ATB200. Treatment was given biweekly. Treated mice were sacrificed after 14 days from the last administration and various tissues were collected for further analysis. Table 7 summarizes the study design:
Tissue samples were also analyzed for biomarker changes following the methods discussed in: Khanna R, et al. (2012), “The pharmacological chaperone AT2220 increases recombinant human acid α-glucosidase uptake and glycogen reduction in a mouse model of Pompe disease,” Plos One 7(7): e40776; and Khanna, R et al. (2014), “The Pharmacological Chaperone AT2220 Increases the Specific Activity and Lysosomal Delivery of Mutant Acid α-Glucosidase, and Promotes Glycogen Reduction in a Transgenic Mouse Model of Pompe Disease,” PLoS ONE 9(7): e102092.

Gaa KO mice [5] = assay: single fiber analysis (LAMP1/LC3 co-immunofluorescence, white gastrocnemius); assay type: in vivo; conditions: Gaa KO mice
Excerpt: FIG. 17 depicts co-immunofluorescent staining of LAMP1 (green) (see for example, “B”) and LC3 (red) (see, for example, “A”) in single fibers isolated from the white gastrocnemius of Gaa KO mice treated with a vehicle, alglucosidase alfa, or ATB200. “C” depicts clearance of autophagic debris and absence of enlarged lysosome. A minimum of 30 fibers were examined from each animal.
As a result, a significant portion of muscle fibers analyzed (36-60%) from ATB200-treated mice appeared normal or near-normal.

[6] = tested on: adult subjects with late-onset Pompe disease (LOPD); assay: ATB200-03 (PROPEL): safety assessments; assay type: in vivo, human; conditions: 52-week treatment
Excerpt: Safety assessments included monitoring of adverse events (AEs), including infusion associated reactions (IARs), clinical laboratory tests (chemistry, hematology, and urinalysis), vital signs, physical examinations including weight, electrocardiograms (ECGs), and immunogenicity. Concomitant medications and nondrug therapies were also be recorded.
The safety profile of ATB200/AT2221 was characterized using incidence of treatment emergent adverse events (TEAEs), serious adverse events (SAEs), and AEs leading to discontinuation of study drug, frequency and severity of immediate and late IARs, and any abnormalities noted in other safety assessments. The impact of immunogenicity to ATB200 and alglucosidase alfa on safety and efficacy was also assessed.
Safety Analyses. Safety data was summarized using counts and percentages for categorical data and descriptive statistics (mean, standard deviation, median, minimum, maximum) for continuous data.

[7] = tested on: adult subjects with late-onset Pompe disease (LOPD); assay: ATB200-03 (PROPEL) phase 3 trial: 6-minute walk test; assay type: in vivo, human
Excerpt: as §1
Eligible subjects were randomly assigned in a 2:1 ratio to receive ATB200/AT2221 or alglucosidase alfa/placebo and stratified by ERT status (ERT-experienced, ERT-naïve) and baseline 6-minute walk distance (6MWD) (75 to <150 meters, 150 to <400 meters, ≥400 meters).
as §2
The primary efficacy endpoint was the change from baseline to Week 52 in 6MWD. The primary endpoint was tested for superiority of ATB200/AT2221 vs Alglucosidase alfa/placebo, using mixed-effect model for repeated measures (MMRM) and pre-specified nonparametric test in case of violation of normality.
Efficacy Analyses. The primary efficacy endpoint (i.e., change from baseline to Week 52 in 6MWD) was analyzed using a parametric analysis of covariance (ANCOVA) model to compare between the new treatment and the control. This model would typically adjust for baseline 6MWD (as a continuous covariate), and the 2 factors used to stratify randomization: ERT status (ERT naïve vs. ERT-experienced) and baseline 6MWD (75 to <150 meters, 150 to <400 meters, ≥400 meters). However, the baseline 6MWD could not be used in the model twice (both as a continuous and a categorical variable) due to the expected high point biserial correlation between them. Thus, the 6MWD continuous variable remained in the model but the categorical 6MWD was removed. The ANCOVA model then had terms for treatment, baseline 6MWD (continuous), and ERT status (categorical).
as §3

[8] = tested on: subjects with late-onset Pompe disease (LOPD); conditions: cited from earlier work
[9] = tested on: adult subjects with late-onset Pompe disease (LOPD); assay: ATB200-03 (PROPEL): urinary hexose tetrasaccharide (Hex4) biomarker; assay type: in vivo, human; conditions: after 52 weeks, combined ERT switch and ERT naïve population (p<0.001)
Excerpt: as §1, §4, §5

[10] = ERT switch (ERT-experienced) population (n=95)
[11] = ERT treatment naïve population (n=27), listed as Alglucosidase alfa
[12] = overall ERT switch and ERT naïve population (n=122)

For “[199-arginine,223-histidine]prepro-α-glucosidase (human) [alglucosidase alfa]”, the GSGC scores [1] was “worsening”, the “FVC CFBL at Week 52” value [2, 10] was −4.0 (0.9) % predicted and the “FVC CFBL at Week 52” value [2, 11] was −3.6 (1.8) % predicted. For the same substance, the “FVC CFBL at Week 52” value ([2]; ERT treatment naïve population (n=27), listed as alglucosidase alpha) was −3.6 % predicted, the “absolute decline in percent-predicted FVC” value ([2]; after 52 weeks, combined population) was 4.0% and the “absolute decline in percent-predicted FVC” value ([2]; over the course of the year, ERT switch patients) was 4.0%. The “FVC CFBL at Week 52” value [2, 12] was −4.0 (0.8) % predicted, the “mean change in CK” value [3] was “+15.6%” and the “LC3 II level by western blot (autophagy)” value (Gaa KO mice [4]) was “modest”. For the same substance, the “Fibers with Autophagy Buildup” value (Gaa KO mice [5]) was >90%, the “Fibers with Normal or Near-normal Appearance” value (Gaa KO mice [5]) was <10% and the “patients who discontinued treatment due to an adverse event” value [6] was 2.6%. The “Injection associated reactions (IARs) reported” value ([6]; share of participants) was 26%, the “6MWD CFBL at Week 52” value [7, 10] was 0.0 m and the “6MWD CFBL at Week 52” value ([7]; ERT treatment naïve population (n=27)) was 38 m. For the same substance, the “6MWD CFBL at Week 52” value [7, 11] was “+38.3 (11.1) m”, the “6MWD CFBL at Week 52” value [7, 12] was 7 m and the “6MWD CFBL at Week 52” value ([7]; overall ERT switch and ERT naïve population (n=122), listed as Alglucosidase alfa) was “+7.2 m”. The “subjects who did not show an initial improvement during treatment” value ([8]; 368 LOPD subjects from published studies) was > 30%, the “duration of improvements in initial responders” value ([8]; longer-term studies) was “approximately 2 years” and the “mean change in urine Hex-4” value [9] was “+11.0%”.
